Data as given in patent publication US20140120232A1, “ACID TASTE/ACID SMELL-REDUCING AGENT” (T. HASEGAWA CO., LTD., priority 2011, published 2014).

Test: Sensory evaluation of Vermont drink containing the agent
Settings: ten panels
Experimental: Water was added to a mixture of 10 g of apple-cider vinegar (acetic acid: 4.8%), 3 g of honey, 7 g of fructose-glucose liquid sugar mixed with sugar, 0.02 g of citric acid, 0.002 g of trisodium citrate, and 0.1 g of a Vermont flavor (manufactured by T. Hasegawa Co., Ltd.) to give a total amount of 100 mL. To the resulting mixture was added (Z,Z)-4,7-tridecadienal as the acid taste and/or acid smell-reducing agent of the present invention in concentrations shown in the following Table 1 to give Vermont drinks containing the agent.
Sensory evaluation of each drink was carried out by ten panels. […] The piercing aroma characteristic to aldehydes is a characteristic aroma common to every aldehyde and refers to an irritant off-smell giving an image of deteriorated oils and fats, soap, metals, Houttuynia cordata, etc. The judgment of smell was performed by comparing the effects at different concentrations of the acid taste and/or acid smell-reducing agent, and a concentration giving the highest acid taste/acid smell quality was selected. […]

CCCCC/C=C/C/C=C/CCC=O [(E,E)-4,7-tridecadienal]
A: number of panels, acid taste/acid smell extreme and cause irritation (0.005 ppt): 10
B: number of panels, acid taste/acid smell slightly strong and slightly cause irritation (0.005 ppt): 0
C: number of panels, acid taste/acid smell slightly unpleasant (0.005 ppt): 0
Flavor judgment: number of panels who judged acid taste/acid smell quality the highest (0.005 ppt): 0
N: number of panels, irritation of acid reduced to give a mild acid taste (0.005 ppt): 0
X: number of panels, acid taste reduced but piercing odor characteristic to aldehydes unpleasant (0.005 ppt): 0
A: number of panels, acid taste/acid smell extreme and cause irritation (0.02 ppt): 10
B: number of panels, acid taste/acid smell slightly strong and slightly cause irritation (0.02 ppt): 0
C: number of panels, acid taste/acid smell slightly unpleasant (0.02 ppt): 0
Flavor judgment: number of panels who judged acid taste/acid smell quality the highest (0.02 ppt): 0
N: number of panels, irritation of acid reduced to give a mild acid taste (0.02 ppt): 0
X: number of panels, acid taste reduced but piercing odor characteristic to aldehydes unpleasant (0.02 ppt): 0
A: number of panels, acid taste/acid smell extreme and cause irritation (0.1 ppt): 10
B: number of panels, acid taste/acid smell slightly strong and slightly cause irritation (0.1 ppt): 0
C: number of panels, acid taste/acid smell slightly unpleasant (0.1 ppt): 0
Flavor judgment: number of panels who judged acid taste/acid smell quality the highest (0.1 ppt): 0
N: number of panels, irritation of acid reduced to give a mild acid taste (0.1 ppt): 0
X: number of panels, acid taste reduced but piercing odor characteristic to aldehydes unpleasant (0.1 ppt): 0
A: number of panels, acid taste/acid smell extreme and cause irritation (0.2 ppt): 8
B: number of panels, acid taste/acid smell slightly strong and slightly cause irritation (0.2 ppt): 2
C: number of panels, acid taste/acid smell slightly unpleasant (0.2 ppt): 0
Flavor judgment: number of panels who judged acid taste/acid smell quality the highest (0.2 ppt): 0
N: number of panels, irritation of acid reduced to give a mild acid taste (0.2 ppt): 0
X: number of panels, acid taste reduced but piercing odor characteristic to aldehydes unpleasant (0.2 ppt): 0
A: number of panels, acid taste/acid smell extreme and cause irritation (0.5 ppt): 6
B: number of panels, acid taste/acid smell slightly strong and slightly cause irritation (0.5 ppt): 2
C: number of panels, acid taste/acid smell slightly unpleasant (0.5 ppt): 2
Flavor judgment: number of panels who judged acid taste/acid smell quality the highest (0.5 ppt): 0
N: number of panels, irritation of acid reduced to give a mild acid taste (0.5 ppt): 0
X: number of panels, acid taste reduced but piercing odor characteristic to aldehydes unpleasant (0.5 ppt): 0
A: number of panels, acid taste/acid smell extreme and cause irritation (1 ppb): 0
B: number of panels, acid taste/acid smell slightly strong and slightly cause irritation (1 ppb): 0
C: number of panels, acid taste/acid smell slightly unpleasant (1 ppb): 3
Flavor judgment: number of panels who judged acid taste/acid smell quality the highest (1 ppb): 0
N: number of panels, irritation of acid reduced to give a mild acid taste (1 ppb): 4
X: number of panels, acid taste reduced but piercing odor characteristic to aldehydes unpleasant (1 ppb): 3
A: number of panels, acid taste/acid smell extreme and cause irritation (1 ppt): 0
B: number of panels, acid taste/acid smell slightly strong and slightly cause irritation (1 ppt): 4
C: number of panels, acid taste/acid smell slightly unpleasant (1 ppt): 5
Flavor judgment: number of panels who judged acid taste/acid smell quality the highest (1 ppt): 0
N: number of panels, irritation of acid reduced to give a mild acid taste (1 ppt): 1
X: number of panels, acid taste reduced but piercing odor characteristic to aldehydes unpleasant (1 ppt): 0
A: number of panels, acid taste/acid smell extreme and cause irritation (5 ppt): 0
B: number of panels, acid taste/acid smell slightly strong and slightly cause irritation (5 ppt): 1
C: number of panels, acid taste/acid smell slightly unpleasant (5 ppt): 3
Flavor judgment: number of panels who judged acid taste/acid smell quality the highest (5 ppt): 4
N: number of panels, irritation of acid reduced to give a mild acid taste (5 ppt): 6
X: number of panels, acid taste reduced but piercing odor characteristic to aldehydes unpleasant (5 ppt): 0
A: number of panels, acid taste/acid smell extreme and cause irritation (10 ppb): 0
B: number of panels, acid taste/acid smell slightly strong and slightly cause irritation (10 ppb): 0
C: number of panels, acid taste/acid smell slightly unpleasant (10 ppb): 1
Flavor judgment: number of panels who judged acid taste/acid smell quality the highest (10 ppb): 0
N: number of panels, irritation of acid reduced to give a mild acid taste (10 ppb): 3
X: number of panels, acid taste reduced but piercing odor characteristic to aldehydes unpleasant (10 ppb): 6
A: number of panels, acid taste/acid smell extreme and cause irritation (20 ppt): 0
B: number of panels, acid taste/acid smell slightly strong and slightly cause irritation (20 ppt): 0
C: number of panels, acid taste/acid smell slightly unpleasant (20 ppt): 3
Flavor judgment: number of panels who judged acid taste/acid smell quality the highest (20 ppt): 3
N: number of panels, irritation of acid reduced to give a mild acid taste (20 ppt): 7
X: number of panels, acid taste reduced but piercing odor characteristic to aldehydes unpleasant (20 ppt): 0
A: number of panels, acid taste/acid smell extreme and cause irritation (50 ppb): 0
B: number of panels, acid taste/acid smell slightly strong and slightly cause irritation (50 ppb): 0
C: number of panels, acid taste/acid smell slightly unpleasant (50 ppb): 0
Flavor judgment: number of panels who judged acid taste/acid smell quality the highest (50 ppb): 0
N: number of panels, irritation of acid reduced to give a mild acid taste (50 ppb): 3
X: number of panels, acid taste reduced but piercing odor characteristic to aldehydes unpleasant (50 ppb): 7
A: number of panels, acid taste/acid smell extreme and cause irritation (100 ppt): 0
B: number of panels, acid taste/acid smell slightly strong and slightly cause irritation (100 ppt): 0
C: number of panels, acid taste/acid smell slightly unpleasant (100 ppt): 3
Flavor judgment: number of panels who judged acid taste/acid smell quality the highest (100 ppt): 3
N: number of panels, irritation of acid reduced to give a mild acid taste (100 ppt): 7
X: number of panels, acid taste reduced but piercing odor characteristic to aldehydes unpleasant (100 ppt): 0
A: number of panels, acid taste/acid smell extreme and cause irritation (500 ppt): 0
B: number of panels, acid taste/acid smell slightly strong and slightly cause irritation (500 ppt): 2
C: number of panels, acid taste/acid smell slightly unpleasant (500 ppt): 3
Flavor judgment: number of panels who judged acid taste/acid smell quality the highest (500 ppt): 0
N: number of panels, irritation of acid reduced to give a mild acid taste (500 ppt): 3
X: number of panels, acid taste reduced but piercing odor characteristic to aldehydes unpleasant (500 ppt): 2

CCCCC/C=C/C/C=C/C=C/C=O [(E,E,E)-2,4,7-tridecatrienal]
A: number of panels, acid taste/acid smell extreme and cause irritation (0.005 ppt): 10
B: number of panels, acid taste/acid smell slightly strong and slightly cause irritation (0.005 ppt): 0
C: number of panels, acid taste/acid smell slightly unpleasant (0.005 ppt): 0
Flavor judgment: number of panels who judged acid taste/acid smell quality the highest (0.005 ppt): 0
N: number of panels, irritation of acid reduced to give a mild acid taste (0.005 ppt): 0
X: number of panels, acid taste reduced but piercing odor characteristic to aldehydes unpleasant (0.005 ppt): 0
A: number of panels, acid taste/acid smell extreme and cause irritation (0.02 ppt): 10
B: number of panels, acid taste/acid smell slightly strong and slightly cause irritation (0.02 ppt): 0
C: number of panels, acid taste/acid smell slightly unpleasant (0.02 ppt): 0
Flavor judgment: number of panels who judged acid taste/acid smell quality the highest (0.02 ppt): 0
N: number of panels, irritation of acid reduced to give a mild acid taste (0.02 ppt): 0
X: number of panels, acid taste reduced but piercing odor characteristic to aldehydes unpleasant (0.02 ppt): 0
A: number of panels, acid taste/acid smell extreme and cause irritation (0.1 ppt): 10
B: number of panels, acid taste/acid smell slightly strong and slightly cause irritation (0.1 ppt): 0
C: number of panels, acid taste/acid smell slightly unpleasant (0.1 ppt): 0
Flavor judgment: number of panels who judged acid taste/acid smell quality the highest (0.1 ppt): 0
N: number of panels, irritation of acid reduced to give a mild acid taste (0.1 ppt): 0
X: number of panels, acid taste reduced but piercing odor characteristic to aldehydes unpleasant (0.1 ppt): 0
A: number of panels, acid taste/acid smell extreme and cause irritation (0.2 ppt): 9
B: number of panels, acid taste/acid smell slightly strong and slightly cause irritation (0.2 ppt): 1
C: number of panels, acid taste/acid smell slightly unpleasant (0.2 ppt): 0
Flavor judgment: number of panels who judged acid taste/acid smell quality the highest (0.2 ppt): 0
N: number of panels, irritation of acid reduced to give a mild acid taste (0.2 ppt): 0
X: number of panels, acid taste reduced but piercing odor characteristic to aldehydes unpleasant (0.2 ppt): 0
A: number of panels, acid taste/acid smell extreme and cause irritation (0.5 ppt): 7
B: number of panels, acid taste/acid smell slightly strong and slightly cause irritation (0.5 ppt): 1
C: number of panels, acid taste/acid smell slightly unpleasant (0.5 ppt): 2
Flavor judgment: number of panels who judged acid taste/acid smell quality the highest (0.5 ppt): 0
N: number of panels, irritation of acid reduced to give a mild acid taste (0.5 ppt): 0
X: number of panels, acid taste reduced but piercing odor characteristic to aldehydes unpleasant (0.5 ppt): 0
A: number of panels, acid taste/acid smell extreme and cause irritation (1 ppb): 0
B: number of panels, acid taste/acid smell slightly strong and slightly cause irritation (1 ppb): 0
C: number of panels, acid taste/acid smell slightly unpleasant (1 ppb): 2
Flavor judgment: number of panels who judged acid taste/acid smell quality the highest (1 ppb): 0
N: number of panels, irritation of acid reduced to give a mild acid taste (1 ppb): 4
X: number of panels, acid taste reduced but piercing odor characteristic to aldehydes unpleasant (1 ppb): 4
A: number of panels, acid taste/acid smell extreme and cause irritation (1 ppt): 0
B: number of panels, acid taste/acid smell slightly strong and slightly cause irritation (1 ppt): 7
C: number of panels, acid taste/acid smell slightly unpleasant (1 ppt): 3
Flavor judgment: number of panels who judged acid taste/acid smell quality the highest (1 ppt): 0
N: number of panels, irritation of acid reduced to give a mild acid taste (1 ppt): 1
X: number of panels, acid taste reduced but piercing odor characteristic to aldehydes unpleasant (1 ppt): 0
A: number of panels, acid taste/acid smell extreme and cause irritation (5 ppt): 0
B: number of panels, acid taste/acid smell slightly strong and slightly cause irritation (5 ppt): 2
C: number of panels, acid taste/acid smell slightly unpleasant (5 ppt): 3
Flavor judgment: number of panels who judged acid taste/acid smell quality the highest (5 ppt): 2
N: number of panels, irritation of acid reduced to give a mild acid taste (5 ppt): 5
X: number of panels, acid taste reduced but piercing odor characteristic to aldehydes unpleasant (5 ppt): 0
A: number of panels, acid taste/acid smell extreme and cause irritation (10 ppb): 0
B: number of panels, acid taste/acid smell slightly strong and slightly cause irritation (10 ppb): 0
C: number of panels, acid taste/acid smell slightly unpleasant (10 ppb): 2
Flavor judgment: number of panels who judged acid taste/acid smell quality the highest (10 ppb): 0
N: number of panels, irritation of acid reduced to give a mild acid taste (10 ppb): 2
X: number of panels, acid taste reduced but piercing odor characteristic to aldehydes unpleasant (10 ppb): 6
A: number of panels, acid taste/acid smell extreme and cause irritation (20 ppt): 0
B: number of panels, acid taste/acid smell slightly strong and slightly cause irritation (20 ppt): 1
C: number of panels, acid taste/acid smell slightly unpleasant (20 ppt): 3
Flavor judgment: number of panels who judged acid taste/acid smell quality the highest (20 ppt): 5
N: number of panels, irritation of acid reduced to give a mild acid taste (20 ppt): 6
X: number of panels, acid taste reduced but piercing odor characteristic to aldehydes unpleasant (20 ppt): 0
A: number of panels, acid taste/acid smell extreme and cause irritation (50 ppb): 0
B: number of panels, acid taste/acid smell slightly strong and slightly cause irritation (50 ppb): 0
C: number of panels, acid taste/acid smell slightly unpleasant (50 ppb): 0
Flavor judgment: number of panels who judged acid taste/acid smell quality the highest (50 ppb): 0
N: number of panels, irritation of acid reduced to give a mild acid taste (50 ppb): 3
X: number of panels, acid taste reduced but piercing odor characteristic to aldehydes unpleasant (50 ppb): 7
A: number of panels, acid taste/acid smell extreme and cause irritation (100 ppt): 0
B: number of panels, acid taste/acid smell slightly strong and slightly cause irritation (100 ppt): 2
C: number of panels, acid taste/acid smell slightly unpleasant (100 ppt): 2
Flavor judgment: number of panels who judged acid taste/acid smell quality the highest (100 ppt): 3
N: number of panels, irritation of acid reduced to give a mild acid taste (100 ppt): 6
X: number of panels, acid taste reduced but piercing odor characteristic to aldehydes unpleasant (100 ppt): 0
A: number of panels, acid taste/acid smell extreme and cause irritation (500 ppt): 0
B: number of panels, acid taste/acid smell slightly strong and slightly cause irritation (500 ppt): 0
C: number of panels, acid taste/acid smell slightly unpleasant (500 ppt): 4
Flavor judgment: number of panels who judged acid taste/acid smell quality the highest (500 ppt): 0
N: number of panels, irritation of acid reduced to give a mild acid taste (500 ppt): 4
X: number of panels, acid taste reduced but piercing odor characteristic to aldehydes unpleasant (500 ppt): 2
